Drawing on PMC12040169 (PLOS Biology, 2025), this text covers viability for 57 molecules.

The term viability denotes a read-out of living cells in per cent, often relative to untreated cells.

This data set in a line: in vitro. The settings on record: human, hela cells, % viability.
With `COc1ccc(Oc2nccnc2N2CCN(CC3CCCCC3)CC2)cc1OC` [CBK083064T], the viability at 28.5 h, 10 µM amounted to 98.6%.

Take `COc1nccnc1-c1cnn(C)c1` [CBK107069]: the viability at 28.5 h, 10 µM is 89.6%.

`CC(=O)Nc1cccc(-n2cc(-c3cccc(C(F)(F)F)c3)nn2)c1` [CBK112938]: the viability at 28.5 h, 10 µM amounted to 91.2%.

As for `COc1cc(-c2nnc(CSCc3n[nH]c(=O)[nH]3)o2)cc(OC)c1OC` [CBK299814], the viability at 28.5 h, 10 µM amounted to 99.5%.

On to `NC(=O)c1ccc(NC(=O)COc2ccc3ccccc3c2)cc1` [CBK263738], for which the viability at 28.5 h, 10 µM was found to be 101%.

With `O=C(O)CCCC(=O)Nc1cc(C(=O)O)ccc1Cl` [CBK267907], the viability at 28.5 h, 10 µM worked out at 116%.

With `COc1ccc(C(=O)CSc2nnc3n(N)cnn23)cc1` [CBK263201], the viability at 28.5 h, 10 µM worked out at 94.6%.

Turning to `O=S(=O)(Nc1nnn[nH]1)c1csc2ccccc12` [CBK062590], the viability at 28.5 h, 10 µM worked out at 103%.

Turning to `NS(=O)(=O)c1ccc(/N=C/c2cccc(O)c2O)cc1` [CBK261533], the viability at 28.5 h, 10 µM came to 87.8%.

In the case of `COc1cccc(-c2ccc(C(=O)NCc3ccccc3SC)c(N3CCN(C(=O)c4ccco4)CC3)n2)c1` [CBK106025], the viability at 28.5 h, 10 µM was found to be 94.3%.

Regarding `Cc1cccc(-c2ccc(CC3(C(N)=O)CCN(C(=O)Cc4ccccc4)CC3)cc2)c1` [CBK285780], the viability at 28.5 h, 10 µM is 101%.

In the case of `COc1ccc(-c2[nH]c(=S)ncc2-c2ccccc2)c(O)c1` [CBK288447], the viability at 28.5 h, 10 µM came out at 91.5%.

As for `O=C(O)c1cccc2c1C(=O)N(Cc1ccc(F)cc1)C2` [CBK291183], the viability at 28.5 h, 10 µM was 87.3%.

Turning to `Cc1ccccc1N1CCN(C(=O)c2c(C)oc3cc4c(C(=O)N5CCN(c6ccccc6C)CC5)c(C)oc4cc23)CC1` [CBK264833], the viability at 28.5 h, 10 µM came to 89.2%.

As for `COc1ccc(C(C)C)cc1-c1cnc(N)c(NCc2ccncc2)n1` [CBK063695], the viability at 28.5 h, 10 µM is 97.5%.

As to `O=C(NC[C@H]1O[C@@H](CC(=O)N2CCCC2)[C@H](O)[C@@H]1O)c1cccc(F)c1` [CBK288908], the viability at 28.5 h, 10 µM was 88.3%.

`Cc1ccc(C(CC(=O)O)NC(=O)c2ccc(C)c(S(=O)(=O)N3CCCCC3)c2)cc1` (stereo not drawn) [CBK297095]: the viability at 28.5 h, 10 µM was 82.7%.

In the case of `O=C(O)c1ccc2c(c1)C(=O)N(Cc1cccc(CN3C(=O)c4ccc(C(=O)O)cc4C3=O)c1)C2=O` [CBK265556], the viability at 28.5 h, 10 µM is 113%.

With `C[C@H]1CN2C[C@H](O)CC2CN1Cc1cccn1-c1ccc(F)cc1` (stereo partly drawn) [CBK285465], the viability at 28.5 h, 10 µM turned out to be 97.4%.

Turning to `O=C(Nc1ccc(NC(=O)C2CC=CCC2C(=O)O)cc1Cl)C1CCCCC1` (stereo not drawn) [CBK268772], the viability at 28.5 h, 10 µM is 89.7%.

Take `Cc1nc(N2CCCC2)ncc1-c1cc(O)nc(N2CCCCC2)n1` [CBK288226]: the viability at 28.5 h, 10 µM stood at 92.3%.

For the molecule `O=C(c1cc(O)nc2ccccc12)N1CCN(S(=O)(=O)N2CCCC2)CC1` [CBK297898], the viability at 28.5 h, 10 µM worked out at 88.6%.

In the case of `O=C(c1ccc2[nH]ccc2c1)N1CCN(CC2CCOC2)CC1` (stereo not drawn) [CBK304866], the viability at 28.5 h, 10 µM is 111%.

Turning to `O=C(CSc1nnc(-c2cccnc2)n1-c1ccc(Br)cc1)Nc1cc(C(F)(F)F)ccc1Cl` [CBK266099], the viability at 28.5 h, 10 µM was 96.5%.

Consider `COc1nccnc1N1CCN(Cc2ccccc2)CC1` [CBK084210], for which the viability at 28.5 h, 10 µM worked out at 90%.

With `C/C(=N/NC(N)=S)c1ccccc1OCC(=O)O` [CBK007123], the viability at 28.5 h, 10 µM amounted to 97.9%.

With `O=C(NC1CCCC1)c1ccc2c(c1)C(=O)N(CC1CCCO1)C2=O` (stereo not drawn) [CBK269777], the viability at 28.5 h, 10 µM was 103%.

As to `CCc1nn(CC(=O)N2CCCCC2)c(=O)c2cc3occc3n12` [CBK283674], the viability at 28.5 h, 10 µM was 77%.

Regarding `CCN(CC)C(=O)CN1CCN(c2nccnc2Oc2ccc(F)cc2)CC1` [CBK083020T], the viability at 28.5 h, 10 µM worked out at 87.9%.

For the molecule `N#Cc1ccccc1CSc1nc(N)cc(O)n1` [CBK267967], the viability at 28.5 h, 10 µM came out at 98.3%.

As to `CC(=O)Nc1ccc(C#CC2(NC(=O)C3CC3)CCCCC2)cn1` [CBK284676], the viability at 28.5 h, 10 µM turned out to be 87.4%.

Turning to `CC(C)NC(=O)[C@H]1O[C@H](CCN2CCOCC2)CC[C@@H]1O` [CBK288720], the viability at 28.5 h, 10 µM amounted to 108%.

As to `Cc1cccn2cc(CC(=O)NCCNC(=O)OC(C)(C)C)nc12` [CBK306122], the viability at 28.5 h, 10 µM was determined as 100%.

Regarding `CCn1cncc1CN1CC2CCCC(O)(c3ccc(C)cc3)C2C1` (stereo not drawn) [CBK284374], the viability at 28.5 h, 10 µM amounted to 90%.

Take `CCc1cccc(CC)c1NC(=O)CN(c1cccc(Cl)c1Cl)S(C)(=O)=O` [CBK265934]: the viability at 28.5 h, 10 µM turned out to be 103%.

Turning to `O=C(O)CN(CC(=O)O)S(=O)(=O)c1ccc(Cl)cc1` [CBK261526], the viability at 28.5 h, 10 µM was determined as 92.2%.

In the case of `CCCNc1cc(C)c(C#N)c2nc3ccccc3n12` [CBK288097], the viability at 28.5 h, 10 µM was found to be 94%.

`O=C(Nc1ccc(F)cc1)c1ccc(=O)n(CC(=O)N2CCC3(CCCCC3)C2)c1` [CBK286006]: the viability at 28.5 h, 10 µM was 94.9%.

As to `O=c1c(N2CCC(Sc3ccccc3)CC2)nccn1Cc1ccc(-n2cncn2)cc1` [CBK153655], the viability at 28.5 h, 10 µM was 90.9%.

On to `O=c1[nH]c(=O)c2cc(S(=O)(=O)N3CCC(c4ccccc4)C3)ccc2[nH]1` (stereo not drawn) [CBK286382], for which the viability at 28.5 h, 10 µM stood at 105%.

Consider `Cc1ccc2oc(C(=O)Nc3ccc(-n4cnnn4)cc3)c(C)c2c1` [CBK287804], for which the viability at 28.5 h, 10 µM was 88.1%.

`Cc1ccc(CN(CCN(C)C)Cc2c(C)nn(C(C)C)c2C)o1` [CBK283235]: the viability at 28.5 h, 10 µM was 100%.

On to `Cc1cc(C(=O)NCCc2ccc(S(=O)(=O)NC(=O)NC3CCCCC3)cc2)n[nH]1` [CBK023997], for which the viability at 28.5 h, 10 µM was found to be 99.1%.

Turning to `Cc1ccc(/C=C/C(=O)O)cc1S(=O)(=O)N1CCCc2ccccc21` [CBK264425], the viability at 28.5 h, 10 µM was 101%.

As for `CSc1nnc(-c2sccc2OCc2ccc(Cl)cc2Cl)n1C` [CBK067693], the viability at 28.5 h, 10 µM is 111%.

As to `CCN1C(=O)C2(CC(=O)N(CCOC)C2=O)c2cc(Cl)ccc21` (stereo not drawn) [CBK075244], the viability at 28.5 h, 10 µM is 121%.

`OCc1cccc(-c2nccnc2NCc2ccncc2)c1` [CBK037446]: the viability at 28.5 h, 10 µM came to 105%.

On to `CC(NC(=O)C1CCN(CCN2C(=O)c3ccccc3C2=O)CC1)c1ccc(F)cc1` (stereo not drawn) [CBK148750], for which the viability at 28.5 h, 10 µM is 107%.

Turning to `O=C(O)C(O)C(O)c1nc2ccccc2[nH]1` (stereo not drawn) [CBK260955], the viability at 28.5 h, 10 µM turned out to be 107%.

Turning to `Cc1cc(=O)oc2ccc(OCC(=O)Nc3ccc(S(=O)(=O)O)cc3)cc12` [CBK263185N], the viability at 28.5 h, 10 µM was found to be 100%.

`O=C1NC(=S)S/C1=C\c1cn(-c2ccccc2)nc1-c1ccc(OCc2ccccc2)cc1` [CBK265496]: the viability at 28.5 h, 10 µM was 79.4%.

`Cc1cc(COc2nccnc2N2CCN(CC(N)=O)CC2)no1` [CBK084192]: the viability at 28.5 h, 10 µM came out at 91%.

For the molecule `CC(C)C(=O)Nc1c(-c2ccccc2)cnc2ncccc12` [CBK083713], the viability at 28.5 h, 10 µM is 94.8%.

For `CCn1nc(C)c(-c2cncn2Cc2ccccc2CN(C)C)c1C` [CBK281998], the viability at 28.5 h, 10 µM stood at 88.1%.

Consider `CN1CCN(CCCNC(=O)N(C)C2CCN(C)C2)CC1` (stereo not drawn) [CBK155993], for which the viability at 28.5 h, 10 µM came to 96.4%.

For `Cc1cc(N(C)C)nc(SCc2n[nH]c(=S)o2)n1` [CBK006887], the viability at 28.5 h, 10 µM is 99.8%.

On to `Cc1c(CNC(=O)c2cc(-c3ccncc3)nc3ccc(Cl)cc23)cnn1C` [CBK288627], for which the viability at 28.5 h, 10 µM was 99.5%.
